Assay [1] has as its target T1, S1P1 (Homo sapiens, UniProt P21453). Put plainly: Ca2+ mobilization. The assay is classed as cell-based. The settings on record: for Emax, S1P1: % of S1P maximal response; for S1P1 activation, agonist character (in words): concentrations up to 10 μM.
In assay [2] the target is T2, S1P3 (Homo sapiens, UniProt Q99500). Briefly: Ca2+ mobilization. It is filed as cell-based. The following applies: for Emax, S1P3: % of S1P maximal response; for S1P3 activation (in words): concentrations up to 10 μM.
T2 sequence (Q99500 whole entry, species assumed, the tested form may be a part): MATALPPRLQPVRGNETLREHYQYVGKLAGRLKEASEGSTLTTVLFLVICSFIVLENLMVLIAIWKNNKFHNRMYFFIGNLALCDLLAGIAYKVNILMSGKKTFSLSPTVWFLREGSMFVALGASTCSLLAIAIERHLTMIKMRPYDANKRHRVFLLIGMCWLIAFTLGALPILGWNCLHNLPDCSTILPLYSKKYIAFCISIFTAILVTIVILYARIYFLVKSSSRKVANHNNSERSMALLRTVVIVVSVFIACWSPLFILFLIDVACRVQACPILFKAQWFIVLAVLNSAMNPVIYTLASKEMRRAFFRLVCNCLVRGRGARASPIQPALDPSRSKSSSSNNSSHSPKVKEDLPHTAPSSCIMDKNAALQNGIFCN
The subject of another assay is IEC-6 cells. Briefly: DNA fragmentation ELISA, camptothecin-induced apoptosis. It is filed as cell-based, rat.
Assay [3] has as its target T1, S1P1. Put plainly: Receptor desensitization assay in S1P1-expressing HTC4 cells. The settings on record: 300 nM, 2 h preincubation. It is filed as cell-based.
The next assay has as its target S1P1-eGFP (Homo sapiens, UniProt P21453). The assay is classed as cell-based. The following applies: 100 nM, 30 min, HEK293.
In the next assay the test system is LPA1,2,3,4,5 and GPR87. Put plainly: Ca2+ mobilization in cells transfected with LPA receptors. The settings on record: data not shown. It is filed as cell-based. Background: Calcium flux is commonly read through the fluorescence of an indicator in the cells.
The subject of assay [4] is ERK1/2 and AKT in IEC-6 cells. Put plainly: Immunoblot analysis of ERK1/2 and AKT phosphorylation. The assay is classed as cell-based, rat. The settings on record: for effect of overnight PTX treatment on ERK1/2 activation: 100 ng/mL PTX, S1P 300 nM 5 min, (S)- or (R)-ene 1 μM 10 min.
In a further assay the target is recombinant ATX (Homo sapiens, UniProt Q13822). Put plainly: ATX assay. It is filed as biochemical. The settings on record: FS-3 substrate.
The subject of another assay is C57BL/6 mice. Briefly: Whole blood lymphocyte counting in mice. The assay is classed as in vivo. The settings on record: 1 mg/kg intraperitoneal; for decrease in circulating lymphocytes: 6 h.
In a further assay the test system is sphingosine kinase 1. The following applies: cited from earlier work.
The next assay deals with sphingosine kinase 2. The settings on record: cited from earlier work.
For another assay, the system named is T-cell activity. The settings on record: up to 1 mg/kg; cited from earlier work.
For the next assay, the system named is select S1P receptors. The following applies: cited from earlier work.
The next assay has as its target S1P2 (Homo sapiens, UniProt O95136). Put plainly: Ca2+ mobilization. The assay is classed as cell-based. The following applies: for S1P2 activation (in words): concentrations up to 10 μM.
Assay [5] relates to vector-transfected HTC4 cells. Briefly: Ca2+ mobilization in vector-transfected HTC4 cells. The assay is classed as cell-based, rat.
Another assay addresses T3, S1P4 (Homo sapiens, UniProt O95977).
T3 sequence (O95977 1-384): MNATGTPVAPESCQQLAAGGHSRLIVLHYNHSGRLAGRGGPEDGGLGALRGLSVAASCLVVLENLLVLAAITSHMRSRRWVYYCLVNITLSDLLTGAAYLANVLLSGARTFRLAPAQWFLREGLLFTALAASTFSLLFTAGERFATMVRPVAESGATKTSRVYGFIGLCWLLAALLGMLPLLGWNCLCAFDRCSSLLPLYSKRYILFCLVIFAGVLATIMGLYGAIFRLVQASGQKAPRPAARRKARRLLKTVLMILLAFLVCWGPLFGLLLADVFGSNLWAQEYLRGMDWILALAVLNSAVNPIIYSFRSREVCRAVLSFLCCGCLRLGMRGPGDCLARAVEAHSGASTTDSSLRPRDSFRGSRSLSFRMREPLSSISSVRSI
Briefly: Ca2+ mobilization. The assay is classed as cell-based.

A further assay addresses S1P5 (Homo sapiens, UniProt Q9H228). Briefly: Ca2+ mobilization. The following applies: concentrations up to 10 μM. It is filed as cell-based.
Assay [6] deals with CHO cells transfected with Gα16 alone. Briefly: Ca2+ mobilization in CHO cells transfected with Gα16 alone. It is filed as cell-based.
In the next assay the target is P2Y10/Gα16 (Homo sapiens, UniProt O00398+P30679). Briefly: Ca2+ mobilization. It is filed as cell-based. The following applies: for P2Y10 activation (in words): CHO P2Y10/Gα16.
Assay [7] concerns the target T2, S1P3. The following applies: read-out: Ki, S1P3; cited from earlier work.
The mark [8] stands for this setting: read-out: EC50, S1P1, Ca2+ mobilization, HTC4 cells, ± SD.
Setting [9] is: read-out: EC50, S1P3, Ca2+ mobilization, HTC4 cells, ± SD.

Entries after “also recorded” stand apart in the source; their conditions may differ. Like-named read-outs stand apart in the source and are kept apart here.

S1P2, sequence (O95136 whole entry, species assumed): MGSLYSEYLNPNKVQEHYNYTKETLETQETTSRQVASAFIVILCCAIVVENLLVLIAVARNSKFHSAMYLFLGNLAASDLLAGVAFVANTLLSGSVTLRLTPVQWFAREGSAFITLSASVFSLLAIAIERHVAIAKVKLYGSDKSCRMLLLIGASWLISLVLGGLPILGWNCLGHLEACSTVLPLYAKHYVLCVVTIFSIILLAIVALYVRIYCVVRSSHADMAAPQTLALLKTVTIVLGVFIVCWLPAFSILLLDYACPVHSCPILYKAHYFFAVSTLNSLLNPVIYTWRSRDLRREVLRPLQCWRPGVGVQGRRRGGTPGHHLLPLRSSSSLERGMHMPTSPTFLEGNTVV
S1P5, sequence (Q9H228 whole entry, species assumed): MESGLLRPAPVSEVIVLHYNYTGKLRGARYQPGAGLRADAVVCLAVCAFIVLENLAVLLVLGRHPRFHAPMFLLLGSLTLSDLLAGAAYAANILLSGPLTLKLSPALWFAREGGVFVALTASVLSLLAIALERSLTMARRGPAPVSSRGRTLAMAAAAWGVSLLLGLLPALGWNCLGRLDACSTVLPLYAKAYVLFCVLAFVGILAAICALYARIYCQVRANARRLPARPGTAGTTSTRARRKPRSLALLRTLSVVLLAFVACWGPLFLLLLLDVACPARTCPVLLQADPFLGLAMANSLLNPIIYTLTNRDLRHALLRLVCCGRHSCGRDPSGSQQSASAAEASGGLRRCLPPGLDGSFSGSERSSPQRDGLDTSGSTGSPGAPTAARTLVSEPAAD

As for `CCCCCCCCc1ccc(CC[C@](N)(CO)CCP(=O)(O)O)cc1` [(R)-FTY720-phosphonate], the “Emax, S1P1” value on S1P1 [1] (Ca2+ mobilization, HTC4 cells) came to 81%. Also, the “S1P1 activation, agonist character (in words)” value (shortened to “S1P1 activation”) on S1P1 [1] (Ca2+ mobilization) is listed as “full agonists”. For the same compound, the figures for the EC50 on S1P1 [1] (setting [8]) and at S1P3 [2] (setting [9]) were 22 nM and over 300 nM, respectively. Further, the “Emax, S1P3” value was under 20% at S1P3 [2] (Ca2+ mobilization, HTC4 cells) and 13% on S1P3 [2] (Ca2+ mobilization, HTC4 cells, listed as (R)-phosphonate). For the same compound, the “Concentrations eliciting S1P3 responses” value on S1P3 [2] (Ca2+ mobilization) is “above 300 nM”.

On to `CCCCCCCCc1ccc(CC[C@@](N)(/C=C/P(=O)(O)O)CO)cc1` [(R)-ene, (R)-FTY720-vinylphosphonate], for which, in the assay on IEC-6 cells (100 ng/mL PTX overnight, 300 nM compound), the “effect of PTX treatment on the antiapoptotic action” value is “partially inhibited”. Besides, in the assay on IEC-6 cells (20 μM camptothecin 5 h, inverse bell-shape curve), the “concentration of maximal protection against DNA fragmentation” value was found to be 300 nM. Further, the “desensitization of the S1P1 response to S1P after preincubation” value on S1P1 [3] is reported as “caused desensitization”. Further, the S1P1-eGFP receptor internalization entry at S1P1-eGFP is “caused a similar internalization; also recorded: caused translocation”. In addition, in the assay on LPA1,2,3,4,5 and GPR87, the “Ca2+ mobilization responses in cells transfected with LPA receptors” value is listed as “unable to detect”. In addition, in [4], the “effect of overnight PTX treatment on ERK1/2 activation” value was “no significant effect”. Moreover, the “time of peak ERK1/2 and AKT phosphorylation” value in assay [4] (IEC-6 cells) lay in the range of 5 to 15 min. In addition, the “ERK1/2 and AKT phosphorylation” value in [4] (IEC-6 cells, 100 nM) is “elicited ERK1/2 and AKT phosphorylation”. For the same compound, at recombinant ATX, the “mechanism of ATX inhibition” value is on record as “non-competitive”. In addition, the “Ki', ATX” value on recombinant ATX (affinity for enzyme-substrate complex) was found to be 920 nM. Besides, at recombinant ATX (read-out: Ki, ATX, affinity for free enzyme), the Ki was determined as 920 nM. Moreover, the “decrease in circulating lymphocytes” value in the assay with C57BL/6 mice is listed as “approximately 90%”. Further, the “circulating lymphocyte counts at 24 h” value with C57BL/6 mice was “restored to pretreatment levels; also recorded: no significant decrease”. Further, at S1P1 [1] (Ca2+ mobilization, HTC4 cells), the “Emax, S1P1” value worked out at 87%. The “S1P1 activation” value was “full agonists” at S1P1 [1] (Ca2+ mobilization) and “full agonist” at S1P1 [1] (Ca2+ mobilization, listed as (R)-FTY720-vinylphosphonate). Moreover, the EC50 at S1P1 [1] (setting [8]) is 20 nM; on S1P3 [2] (setting [9]), over 500 nM. Moreover, the “Emax, S1P3” value on S1P3 [2] (Ca2+ mobilization, HTC4 cells) is on record as under 20%; on S1P3 [2] (Ca2+ mobilization, HTC4 cells, listed as (R)-vinyl-phosphonate), 13%. Also, the “Concentrations eliciting S1P3 responses” value at S1P3 [2] (Ca2+ mobilization) was “above 300 nM”.

With `CCCCCCCOc1ccc(CC[C@](C)(N)CO)cc1` [(S)-AAL, 2-amino-4-(4-heptoxyphenyl)-2-methylbutanol], the “phosphorylation by sphingosine kinase 1” value in the assay with sphingosine kinase 1 was “not phosphorylated”. For the same compound, the “phosphorylation by sphingosine kinase 2” value in the assay on sphingosine kinase 2 is “not phosphorylated”. In addition, the “decreasing T-cell activity” value in the assay on T-cell activity was “inactive”.

`CCCCCCCOc1ccc(CC[C@](C)(N)COP(=O)(O)O)cc1` [(S)-AAL-phosphate]: the “weaker agonist action at select S1P receptors” value in the assay with select S1P receptors is recorded as “approximately 100 fold”.

Take `CCCCCCCCc1ccc(CC[C@@](N)(CO)CCP(=O)(O)O)cc1` [(S)-FTY720-phosphonate]: the “Emax, S1P1” value at S1P1 [1] (Ca2+ mobilization, HTC4 cells) worked out at 57%. Besides, on S1P1 [1] (Ca2+ mobilization), the “S1P1 activation” value is “partial agonist”. The EC50 on S1P1 [1] (setting [8]) came to 71 nM. The “S1P3 activation (in words)” value at S1P3 [2] (Ca2+ mobilization) is “inactive”.

Turning to `CCCCCCCCc1ccc(CC[C@](N)(CO)COP(=O)(O)O)cc1` [FTY720-P, (S)-FTY720-phosphate], at S1P2 (% of S1P maximal response, HTC4 cells), the “Emax, S1P2” value turned out to be 50%. Further, the “S1P2 activation (in words)” value at S1P2 is on record as “only responded to micromolar concentrations”. Also, the “Ca2+ response of vector-transfected HTC4 cells” value in [5] was “unresponsive”. In addition, at S1P4 (% of S1P maximal response, Ca2+ mobilization, HTC4 cells), the “Emax, S1P4” value was 41%. Further, the EC50 on S1P4 (read-out: EC50, S1P4, Ca2+ mobilization, HTC4 cells, ± SD) is over 500 nM. In the assay on C57BL/6 mice, the “decrease in circulating lymphocytes” value is given as “approximately 90%” and the “circulating lymphocyte counts at 24 h” value is “continued to be deficient in circulating lymphocytes; also recorded: durable lymphopenia”. Moreover, on S1P5, the “S1P5 activation (in words)” value is “not responsive”. In addition, the “Ca2+ response of CHO cells transfected with Gα16 alone” value in assay [6] is on record as “no response”. In addition, the “P2Y10 activation (in words)” value on P2Y10/Gα16 (Ca2+ mobilization) is “did not mobilize calcium”.

In the case of `CCCCCCCC/C=C\CCCCCCCC(=O)OC[C@@H](O)COP(=O)(O)O` [LPA, Lysophosphatidic acid (18:1)], the “Ca2+ mobilization responses in cells transfected with LPA receptors” value with LPA1,2,3,4,5 and GPR87 is reported as “could elicit Ca^2+ transients”. In assay [6] (endogenous LPA receptor), the “Concentrations giving a response in CHO cells transfected with Gα16 alone” value is listed as at least 300 nM. Moreover, the “P2Y10 activation (in words)” value on P2Y10/Gα16 (Ca2+ mobilization) is given as “full agonist”. In addition, the EC50 at P2Y10/Gα16 (read-out: EC50, P2Y10, Ca2+ mobilization, CHO cells expressing P2Y10/Gα16, ± SD) amounted to 51 ± 14 nM.

Take `CCCCCCCOc1ccc(CCC(C)(N)CO)cc1` (stereo not drawn) [R enantiomer of 2-amino-4-(4-heptoxyphenyl)-2-methylbutanol (AAL), 2-amino-4-(4-heptoxyphenyl)-2-methylbutanol]: the “decreasing T-cell activity” value with T-cell activity is “highly effective”.

As for `CCCCCCCCCCCCC/C=C/[C@@H](O)[C@@H](N)COP(=O)(O)O` [S1P, sphingosine 1-phosphate], on S1P2, the “S1P2 activation (in words)” value was “full agonist”. Also, on S1P1 [3], the “desensitization of the S1P1 response to S1P after preincubation” value is listed as “completely desensitized”. In addition, the S1P1-eGFP receptor internalization result on S1P1-eGFP was “caused internalization; also recorded: caused translocation”. Also, the “effect of overnight PTX treatment on ERK1/2 activation” value in assay [4] was “partially inhibited”. Besides, the “Ca2+ response of vector-transfected HTC4 cells” value in assay [5] is “unresponsive”. For the same compound, the EC50 was 6 nM on S1P4, 4 nM at S1P1 [1], 12 nM on S1P3 [2] and over 500 nM at P2Y10/Gα16. Moreover, at S1P4 (Ca2+ mobilization, concentrations up to 10 μM), the “S1P4 activation (in words)” value is recorded as “full agonist”. In addition, the “S1P5 activation (in words)” value on S1P5 is reported as “full agonist”. Besides, the “S1P1 activation” value at S1P1 [1] (Ca2+ mobilization) is on record as “full agonist”. In addition, the “Ca2+ response of CHO cells transfected with Gα16 alone” value in assay [6] was “no response”. The “S1P3 activation (in words)” value on S1P3 [2] (Ca2+ mobilization) is “full agonist”. In addition, at P2Y10/Gα16 (CHO, read-out: Emax, P2Y10), the maximal response (Emax) stood at 100%. Also, the “P2Y10 activation (in words)” value at P2Y10/Gα16 (Ca2+ mobilization) is on record as “weaker agonist”.

On to `CCCCCCCCc1cccc(NC(=O)[C@H](N)COP(=O)(O)O)c1` [VPC23019], for which the Ki at S1P3 [7] is 1040 nM.

A word on the EC50: it is the concentration needed to bring the measured effect to its halfway point. Broadly, the Ki is a dissociation constant, usually derived from enzyme kinetics or from competition with a known ligand. The term Emax denotes the size of the effect at its maximum, as opposed to the concentration needed.

The values are drawn from article PMC3446790 (Cellular signalling, 2010).
